Results taken from patent US11332459B2 (TEIJIN PHARMA LIMITED, priority 2017, dated 2022).
Structures can show the parent of a compound that is named as a salt.

Target: T1, human TRPC6 (Homo sapiens, UniProt Q9Y210)
T1 construct: expressed in transfected cells
T1 sequence (Q9Y210 1-931): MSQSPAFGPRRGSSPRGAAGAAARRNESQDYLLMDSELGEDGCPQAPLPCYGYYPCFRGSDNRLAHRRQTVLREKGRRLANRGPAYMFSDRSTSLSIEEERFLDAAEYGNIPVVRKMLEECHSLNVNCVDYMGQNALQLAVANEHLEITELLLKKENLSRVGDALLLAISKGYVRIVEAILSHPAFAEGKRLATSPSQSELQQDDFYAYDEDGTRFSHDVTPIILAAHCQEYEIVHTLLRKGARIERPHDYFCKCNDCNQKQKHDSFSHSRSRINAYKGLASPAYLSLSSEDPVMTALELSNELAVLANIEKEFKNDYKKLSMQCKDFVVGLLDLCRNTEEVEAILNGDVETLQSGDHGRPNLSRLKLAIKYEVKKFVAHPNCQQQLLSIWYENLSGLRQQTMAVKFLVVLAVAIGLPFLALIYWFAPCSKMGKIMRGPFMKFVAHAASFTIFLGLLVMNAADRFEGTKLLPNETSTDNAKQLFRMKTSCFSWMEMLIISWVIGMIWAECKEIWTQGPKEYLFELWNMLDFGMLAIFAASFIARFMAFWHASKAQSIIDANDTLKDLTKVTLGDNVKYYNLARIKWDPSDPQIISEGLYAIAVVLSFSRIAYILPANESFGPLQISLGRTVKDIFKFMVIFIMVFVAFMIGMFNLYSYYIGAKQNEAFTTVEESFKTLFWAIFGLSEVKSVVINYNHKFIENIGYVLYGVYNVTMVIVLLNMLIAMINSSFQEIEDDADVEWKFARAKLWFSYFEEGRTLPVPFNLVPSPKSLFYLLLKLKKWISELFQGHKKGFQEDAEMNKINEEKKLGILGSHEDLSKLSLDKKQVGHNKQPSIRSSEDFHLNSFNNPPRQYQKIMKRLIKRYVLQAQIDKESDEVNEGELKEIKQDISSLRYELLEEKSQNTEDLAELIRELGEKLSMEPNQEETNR
Assay: TRPC6 calcium flux assay (FLIPR, OAG-stimulated calcium influx)
Type: cell-based
Details: HEK293 cells stably transfected with human TRPC6, read-out: hTRPC6 Potency
Procedure, shortened: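 IC50 derived by plotting background-corrected peak fluorescence (180 s window, normalized to OAG-triggered signal vs buffer) against dose. Stable human TRPC6 HEK293 line was dye-loaded, exposed to compound 25 min, then challenged with 50 uM final OAG in 2 mM Ca2+ HEPES buffer pH 7.2, 0.5% DMSO.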

Structure (SMILES) | IC50
N#Cc1ccc(Cn2c(N3CC[C@@H](F)[C@H](N)C3)nc3ccccc32)nc1 [Example 38, 6-((2-((3R,4R)-3-amino-4-fluoropiperidin-1-yl)-1H-benzo[d]imidazol-1-yl)methyl)nicotinonitrile] | 0.72 nM
N#Cc1ccc(Cn2c(N3CC[C@@H](F)[C@H](N)C3)nc3cc(OC(F)F)ccc32)nc1 [Example 119, 6-((2-((3R,4R)-3-amino-4-fluoro-1-piperidinyl)-5-(difluoromethoxy)-1H-benzimidazol-1-yl)methyl)-3-pyridinecarbonitrile] | 1.94 nM
N#Cc1ccc(Cn2c(N3CC[C@@H](F)[C@H](N)C3)nc3ccc(OC(F)(F)F)cc32)nc1 [Example 19, 6-((2-((3R,4R)-3-amino-4-fluoropiperidin-1-yl)-6-(trifluoromethoxy)-1H-benzo[d]imidazol-1-yl)methyl)nicotinonitrile] | 0.956 nM
CC(c1ccccn1)N(C)C(=O)Cn1c(N2CC[C@@H](F)[C@H](N)C2)nc2cc(F)c(F)cc21 (mixture of isomers) [Example 608, 2-(2-((3R,4R)-3-amino-4-fluoropiperidin-1-yl)-5,6-difluoro-1H-benzo[d]imidazol-1-yl)-N-methyl-N-(1-(pyridin-2-yl)ethyl)acetamide] | 18.3 nM
C[C@H](c1ccc(Cl)cc1Cl)n1c(N2CC[C@@H](F)[C@H](N)C2)nc2cc(F)c(F)cc21 [Example 322, (3R,4R)-1-(1-((1R)-1-(2,4-dichlorophenyl)ethyl)-5,6-difluoro-1H-benzimidazol-2-yl)-4-fluoro-3-piperidinamine] | 1450 nM
N[C@@H]1CN(c2nc3ccc(F)cc3n2CC(=O)NCC(F)(F)F)CC[C@H]1F [Example 661, 2-(2-((3R,4R)-3-amino-4-fluoropiperidin-1-yl)-6-fluoro-1H-benzo[d]imidazol-1-yl)-N-(2,2,2-trifluoroethyl)acetamide] | 279 nM
Cc1nc(Cn2c(N3CC[C@@H](F)[C@H](N)C3)nc3cc(F)c(F)cc32)no1 [Example 572, (3R,4R)-1-(5,6-difluoro-1-((5-methyl-1,2,4-oxadiazol-3-yl)methyl)-1H-benzo[d]imidazol-2-yl)-4-fluoropiperidin-3-amine] | 106 nM
N[C@@H]1CCCN(c2nc3ccccc3n2Cc2ccc(C(F)(F)F)cc2)C1 [Example 375, (R)-1-(1-(4-(trifluoromethyl)benzyl)-1H-benzo[d]imidazol-2-yl)piperidin-3-amine] | 2770 nM
CN(CC(F)(F)F)C(=O)Cn1c(N2CC[C@H](F)[C@H](N)C2)nc2ccc(F)cc21 [Example 462, 2-(2-((3R,4S)-3-amino-4-fluoropiperidin-1-yl)-6-fluoro-1H-benzo[d]imidazol-1-yl)-N-methyl-N-(2,2,2-trifluoroethyl)acetamide] | 29.4 nM
N[C@@H]1CN(c2nc3cc(OC(F)(F)F)ccc3n2CC(=O)N2CCOCC2)CC[C@H]1F [Example 475, 2-(2-((3R,4R)-3-amino-4-fluoropiperidin-1-yl)-5-(trifluoromethoxy)-1H-benzo[d]imidazol-1-yl)-1-morpholinoethan-1-one] | 620 nM
CC(F)(F)c1ccc(Cn2c(N3CCC[C@@H](N)C3)nc3ccccc32)cc1 [Example 379, (R)-1-(1-(4-(1,1-difluoroethyl)benzyl)-1H-benzo[d]imidazol-2-yl)piperidin-3-amine] | 4440 nM
Cc1nnc(Cn2c(N3CC[C@@H](F)[C@H](N)C3)nc3cc(F)c(F)cc32)o1 [Example 571, (3R,4R)-1-(5,6-difluoro-1-((5-methyl-1,3,4-oxadiazol-2-yl)methyl)-1H-benzo[d]imidazol-2-yl)-4-fluoropiperidin-3-amine] | 93.2 nM
N#Cc1cc(F)cc2c1nc(N1CC[C@@H](F)[C@H](N)C1)n2Cc1ncc(F)cn1 [Example 37, 2-((3R,4R)-3-amino-4-fluoropiperidin-1-yl)-6-fluoro-1-((5-fluoropyrimidin-2-yl)methyl)-1H-benzo[d]imidazole-4-carbonitrile] | 6.92 nM
N[C@@H]1CN(c2nc3cc(F)ccc3n2Cc2ncc(Cl)cn2)CC[C@H]1O [Example 206, (3R,4R)-3-amino-1-(1-((5-chloropyrimidin-2-yl)methyl)-5-fluoro-1H-benzo[d]imidazol-2-yl)piperidin-4-ol] | 12.3 nM
CN(CC(F)(F)F)C(=O)Cn1c(N2CC[C@@H]3OCCN[C@H]3C2)nc2cc(F)ccc21 [Example 493, 2-(5-fluoro-2-((4aS,8aS)-hexahydro-2H-pyrido[4,3-b][1,4]oxazin-6(5H)-yl)-1H-benzo[d]imidazol-1-yl)-N-methyl-N-(2,2,2-trifluoroethyl)acetamide] | > 3750 nM
N[C@@H]1CN(c2nc3cc(F)c(F)cc3n2Cc2ccc(Cl)cn2)CC[C@H]1F [Example 227, (3R,4R)-1-(1-((5-chloropyridin-2-yl)methyl)-5,6-difluoro-1H-benzo[d]imidazol-2-yl)-4-fluoropiperidin-3-amine hydrochloride] | 0.328 nM
N[C@@H]1CN(c2nc3cc(F)c(F)cc3n2[C@@H]2CCN(C3CC3)C2=O)CC[C@H]1F [Example 547, (R)-3-(2-((3R,4R)-3-amino-4-fluoropiperidin-1-yl)-5,6-difluoro-1H-benzo[d]imidazol-1-yl)-1-cyclopropylpyrrolidin-2-one] | 43.7 nM
N[C@@H]1CN(c2nc3cc(F)c(F)cc3n2Cc2ccc(F)cn2)CC[C@@H]1F [Example 304, (3R,4S)-1-(5,6-difluoro-1-((5-fluoropyridin-2-yl)methyl)-1H-benzo[d]imidazol-2-yl)-4-fluoropiperidin-3-amine] | 52.4 nM
N[C@@H]1CN(c2nc3cc(F)c(F)cc3n2CC(=O)N2CCOC3CCOCC32)CC[C@H]1F (mixture of isomers) [Example 620, 2-(2-((3R,4R)-3-amino-4-fluoropiperidin-1-yl)-5,6-difluoro-1H-benzo[d]imidazol-1-yl)-1-(hexahydropyrano[4,3-b][1,4]oxazin-4(7H)-yl)ethanone] | 60.4 nM
N[C@@H]1CN(c2nc3ccc(F)cc3n2CC(=O)NCCC(F)(F)F)CC[C@H]1F [Example 673, 2-(2-((3R,4R)-3-amino-4-fluoropiperidin-1-yl)-6-fluoro-1H-benzo[d]imidazol-1-yl)-N-(3,3,3-trifluoropropyl)acetamide] | > 3750 nM
N#Cc1cc(F)cc2nc(N3CCC(F)(F)[C@H](N)C3)n(Cc3ncc(Cl)cn3)c12 [Example 150, (R)-2-(3-amino-4,4-difluoropiperidin-1-yl)-1-((5-chloropyrimidin-2-yl)methyl)-5-fluoro-1H-benzo[d]imidazole-7-carbonitrile] | 9.02 nM
CC(C)C1CCN1C(=O)Cn1c(N2CC[C@@H](F)[C@H](N)C2)nc2cc(F)c(F)cc21 (stereo partly drawn) [Example 625, 2-(2-((3R,4R)-3-amino-4-fluoropiperidin-1-yl)-5,6-difluoro-1H-benzo[d]imidazol-1-yl)-1-(2-isopropylazetidin-1-yl)ethanone] | 105 nM
N#Cc1ccc(Cn2c(N3CC[C@@H](F)[C@H](N)C3)nc3c(C#N)cc(F)cc32)nc1 [Example 18, 2-((3R,4R)-3-amino-4-fluoropiperidin-1-yl)-1-((5-cyanopyridin-2-yl)methyl)-6-fluoro-1H-benzo[d]imidazole-4-carbonitrile] | 7.85 nM
N[C@@H]1CN(c2nc3ccc(Cl)cc3n2CC(=O)N2CCC2)CC[C@H]1F [Example 285, 2-(2-((3R,4R)-3-amino-4-fluoro-1-piperidinyl)-6-chloro-1H-benzimidazol-1-yl)-1-(1-azetidinyl)ethanone] | 185 nM
